Each structure is given as a SMILES string.

In one series the target is T1, EP4 receptor (Homo sapiens, UniProt P35408).
T1 construct: endogenous in cells; host or cells: Jurkat cells (human leukemia T lymphoma), no transfection described
Nature of the series: EP4 receptor antagonistic activity by measurement of cAMP amount in human Jurkat cells (HTRF). Format: cell-based. The settings on record: inhibition of cAMP, PGE2 100 nM. The procedure:
Evaluation Test of EP4 Receptor Antagonistic Activity by Measurement of cAMP Amount in Human Jurkat Cells
Jurkat cells (derived from human leukemia T lymphoma) were cultured with RPMI1640 (added with 10% fetal bovine serum) using a F75 flask. After proliferation to semiconfluency, indomethacin having a final concentration of 5 μM was added thereto, and the cells were further cultured for 18 hours. The cells were collected in a 15-mL Spitz tube, prepared to be 1×10^6 cells/mL using a Cell Banker (Mitsubishi Kagaku Iatron), and stored at −80° C. until used for assay. The cells were cultured in a CO2 incubator (37° C., 5% CO2).
A cAMP HiRange kit (Cisbio international) was used for cAMP measurement. A test compound, PGE2, and the cells were diluted and prepared with an assay buffer. The test compound was prepared to have a 3-fold concentration relative to the final concentration, PGE2 was prepared to be 300 nM, and the Jurkat cells frozen stored were prepared to be 1×10^6 cells/mL by thawing them at 37° C. To a 384-well U-bottom black microplate (Corning) were added the test compound, the cells, and PGE2 in this order in each in an amount of 5 μL, followed by shaking with a plate shaker and incubating at room temperature for 30 minutes. After incubation, 5 μL of a d2 reagent which had been diluted 0.6-fold with a lysis buffer was added to each well, followed by shaking with a plate shaker. Subsequently, 5 μL of an europium cryptate reagent which had been diluted 0.6-fold with a lysis buffer was added to each well, followed by shaking with a plate shaker and incubating at room temperature for 60 minutes under light shielding. After incubation, the fluorescence of the cryptate at 620 nm and the fluorescence of the d2 at 655 nm were measured using ARVO1420 (PerkinElmer). The cAMPs of 280, 70, 17.5, 4.38, 1.09, 0.27, and 0.068 nM were measured simultaneously for creating a standard curve. All measurements were performed in quadruplicate, and inhibitory rates were calculated by determining the cAMP amount of each test sample to the value obtained by subtracting the cAMP amount of the group without addition of PGE2 from the cAMP amount of the group with addition of PGE2 of 100 nM. IC50 values were calculated by a Logistic regression method.
In this connection, as the “assay buffer” and “lysis buffer” above, those as shown below were used:
Assay buffer; 1×HBSS (Hanks buffered salt solution, Nissui Pharmaceutical Co., Ltd.), 20 mM HEPES (pH 7.4, Nakarai Tesque), 0.5 mM IBMX (3-isobutyl-1-methylxanthine, WAKO), 0.02% CHAPS (Sigma), 0.1% Bovine serum albumin (Sigma), 2 μM Indomethacin (Sigma)
Lysis buffer; 50 mM NaPO4, 0.8 M KF, 1% Triton X-100, 0.2% Bovine serum albumin

Series [1] addresses T2, rat EP4 receptor (Rattus norvegicus, UniProt P43114). Briefly: Evaluation test of rat EP4 receptor affinity ([3H]PGE2 binding, membrane fraction of HEK293 cells expressing rat EP4). Also on record: expressed in transfected cells; host or cells: HEK293 cells, transient transfection with Lipofectamine 2000; membrane fraction. The settings on record: [3H]PGE2 0.3 nM. The procedure:
Evaluation Test of Rat EP4 Receptor Affinity
Cell Culturing and Transfection
Using a 10 cm collagen-coated dish (Asahi Glass), HEK293 cells were cultured in D-MEM culture medium, the culture medium was removed at a confluence (90 to 100% density state) and washed with a phosphate buffer saline (PBS), and then the cells were detached with N,N,N′,N′-tetrakis(carboxymethyl)ethylenediamine (EDTA). The number of the cells were counted and seeded on a 15 cm collagen-coated dish to a confluence of 70%. On the next day, to an Opti-MEM culture medium at 1.2 mL/dish was added Lipofectamine 2000 (Invitrogen) at 60 μL/dish, followed by leaving to stand at room temperature for 5 minutes. A plasmid in which rat EP4 (Sequence Number 1) had been inserted into a TA cloning site of pcDNA3.1-V5-His-topo was added thereto at 15 μg/dish. After leaving to stand at room temperature for 30 minutes, the resultant was added to the dish and cultured for 20 to 24 hours. The cell culture was carried out in a CO2 incubator (37° C., 5% CO2).
Preparation of Membrane Fraction
The culture medium was removed by suction, 10 mL of cooled PBS was added thereto per 15 cm dish, and the cells were scraped using a cell scraper (Sumitomo Bakelite). They were washed with cooled PBS (1,200 rpm, 4° C., 5 min), and then suspended in 6 mL of cooled 20 mM Tris-HCl (pH 7.4; Nakalai Tesque Inc., including 5 mM EDTA (Nakalai Tesque Inc.) per dish and the resultant was homogenized using a Polytron and the homogenate was centrifuged (26,000 rpm, 20 min, 4° C.). The obtained precipitate was resuspended in cooled 20 mM Tris-HCl and homogenized again using a Polytron, and the homogenate was centrifuged (26,000 rpm, 20 min, 4° C.). The obtained precipitate was resuspended in 50 mM HEPES (pH 7.5; Dojindo Laboratories) at 1 mL per dish, homogenized using a Polytron, and freeze-stored at −80° C. as a membrane fraction. At this time, a part thereof was used for the measurement of the protein concentration. Measurement of the protein concentration was carried out in duplicate using a Bio-Rad Protein assay kit (Bio-Rad Laboratories) in accordance with the appended standard Protocol.
[^3H]PGE2 50 μL (final concentration 0.3 nM; Perkin Elmer), 100 μL (20 μg/well) of a membrane fraction prepared from the rat EP4 expression cell and 50 μL of a test compound were mixed in a 96-well microplate (Sumitomo Bakelite), incubated at room temperature for 1 hour, filtered by suction on a UniFilter-96 GF/B (Perkin Elmer) using a FilterMate Harvester (Perkin Elmer), and then washed three times with 300 μL/well of a cooled assay buffer. Dilution of [^3H]PGE2 and the membrane fraction was carried out using an assay buffer (50 mM HEPES, 10 mM MgCl2), and dilution of the test compound and the unlabeled PGE2 was carried out using DMSO and an assay buffer. Further, in the case of the addition of a human serum albumin (HSA), dilution was carried out using an assay buffer containing 4% HSA (final concentration 1%; Sigma). The UniFilter-96 GF/B was treated preliminarily by washing twice with 200 μL/well of a cooled assay buffer. The UniFilter-96 GF/B after filtration was dried in a dryer overnight, 50 μL/well of MicroScint20 (Perkin Elmer) was added thereto, and then the radioactivity was measured using a TopCount (Perkin Elmer). For measurement of the non-specific binding, an unlabeled PGE2 (final concentration 1 μM; Cayman) was added. All of the measurements were carried out in duplicate, and the specific binding amount was determined by subtracting the non-specific binding amount from the total binding amount. The Ki value was calculated according to the general methods.
In the connection, Ex represents the below-described Example Compound number.

Series [2] deals with T2, rat EP4 receptor. Nature of the series: Rat EP4 receptor antagonistic activity by measurement of cAMP amount (rEP4 cAMP HTRF assay, CHO cells). The class given is cell-based. Also on record: expressed in transfected cells. The settings on record: inhibition of cAMP, PGE2 100 nM, CHO cells expressing rat EP4. The procedure: Evaluation Test of Rat EP4 Receptor Antagonistic Activity by Measurement of cAMP Amount
CHO cells in which rat EP4 had been forced to be expressed were seeded in 96-well plates at 2×10^4 cells/100 μL and cultured overnight. The culture medium was replaced with 2 μM Indomethacin/0.1% BSA/alpha-MEM, and further, after 60 minutes, replaced with 1 mM IBMX/2 μM Indomethacin/0.1% BSA/alpha-MEM. After 10 minutes, the test compound was added, and further, after 10 minutes, PGE2 was added at a final concentration of 100 nM. The cells were cultured and reacted in a CO2 incubator (37° C., 5% CO2). After 30 minutes, the culture medium was removed and 100 μL/well of 0.2% Triton X-PBS was added for lysis of the cells. The cAMP contained in this cell lysis solution was measured with a cAMP HiRange kit (Cisbio international). The cell lysis solution was disperesed at 10 μL each into a 384-well U-bottom black microplate (Corning), and a d2 reagent and an europium cryptate reagent were added in this order to each well, each in an amount of 5 μL. It was incubated at room temperature for 60 minutes under light shielding. After incubation, the fluorescence of the cryptate at 620 nm and the fluorescence of the d2 at 655 nm were measured using ARVO1420 (PerkinElmer). The cAMPs of 280, 70, 17.5, 4.38, 1.09, 0.27, and 0.068 nM were measured simultaneously for creating a standard curve. The inhibitory rates were calculated by determining the cAMP amount of each test sample to the value obtained by subtracting the cAMP amount of the group without addition of PGE2 from the cAMP amount of the group with addition of PGE2 of 100 nM. IC50 values are calculated by a Logistic regression method.

The target in series [3] is T2, rat EP4 receptor. Nature of the series: In vivo rat EP4 receptor antagonistic activity (ONO-4819/LPS, plasma TNF-α). The settings on record: SD rat, oral. The procedure:
Evaluation Test of In Vivo Rat EP4 Receptor Antagonistic Activity
A solution of PEG 400:20% Tween 80:aqueous 1 M NaHCO3 solution=1:4:5 of a test compound was orally administered to a SD rat (male, 6-week old) under non-fasting conditions, and after 1 hour, ONO-4819 was administered subcutaneously to the back of the rat. After 30 minutes, Lipopolysaccharide (LPS, 0.01 mg/kg) was administered to the tail vein without anesthesia, and after 60 minutes, 0.5 mL of heparin blood was collected from the fundus under ether anesthesia. The blood sample was centrifuged (3000 rpm, 10 minutes) to separate the plasma, and then the TNF-α concentration in the rat plasma was measured by an ELISA kit (see Hepatology Research Journal, vol. 21, 252-260, 2001). A value obtained by subtracting the TNF-α concentration of the group treated with ONO-4819 from the TNF-α concentration of the group not treated with ONO-4819 was taken as 100%, and the inhibitory rates to the value were calculated for the test compounds.
In this connection, Ex represents the below-described Example compound number.

T2 sequence (P43114 whole entry): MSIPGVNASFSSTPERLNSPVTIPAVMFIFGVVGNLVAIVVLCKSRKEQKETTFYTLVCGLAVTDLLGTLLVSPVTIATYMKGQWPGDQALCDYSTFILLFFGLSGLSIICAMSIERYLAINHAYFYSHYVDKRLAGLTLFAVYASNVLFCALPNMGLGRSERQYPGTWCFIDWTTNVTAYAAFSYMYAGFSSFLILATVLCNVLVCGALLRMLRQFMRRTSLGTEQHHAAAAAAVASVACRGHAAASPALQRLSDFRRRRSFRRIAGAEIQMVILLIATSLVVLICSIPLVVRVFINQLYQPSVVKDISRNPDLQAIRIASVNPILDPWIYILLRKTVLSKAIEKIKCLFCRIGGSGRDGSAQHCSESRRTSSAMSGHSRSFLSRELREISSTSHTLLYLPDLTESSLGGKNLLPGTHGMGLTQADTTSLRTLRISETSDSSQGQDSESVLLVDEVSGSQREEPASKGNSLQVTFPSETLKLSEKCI
T1 sequence (P35408 whole entry): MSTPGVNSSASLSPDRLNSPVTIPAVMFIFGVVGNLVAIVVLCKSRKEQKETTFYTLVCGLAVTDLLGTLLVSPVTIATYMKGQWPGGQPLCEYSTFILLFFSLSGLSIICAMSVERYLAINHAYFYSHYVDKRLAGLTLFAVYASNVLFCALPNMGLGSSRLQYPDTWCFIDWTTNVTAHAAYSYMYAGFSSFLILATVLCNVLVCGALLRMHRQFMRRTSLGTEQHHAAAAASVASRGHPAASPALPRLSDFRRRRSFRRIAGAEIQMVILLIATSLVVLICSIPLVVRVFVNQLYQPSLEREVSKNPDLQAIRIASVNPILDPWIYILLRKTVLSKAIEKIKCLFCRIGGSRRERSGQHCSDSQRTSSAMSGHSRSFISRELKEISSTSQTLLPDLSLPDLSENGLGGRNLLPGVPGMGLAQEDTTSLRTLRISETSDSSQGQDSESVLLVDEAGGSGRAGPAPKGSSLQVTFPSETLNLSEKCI

The term IC50 denotes the concentration at which inhibition is half-maximal. A higher IC50 goes with a need for much substance. Usually Ki stands for a measure of affinity in units of concentration, obtained from inhibition or displacement. Read a high Ki as weaker binding. With `C[C@H](NC(=O)c1cccc2ccn(Cc3ccc(-c4ccccc4)cc3)c12)c1ccc(C(=O)O)cc1` [Example 3, 4-[(1S)-1-({[1-(biphenyl-4-ylmethyl)-1H-indol-7-yl]carbonyl}amino)ethyl]benzoic acid], the IC50 is 0.11 nM at EP4 receptor and 0.99 nM against rat EP4 receptor [2]. This molecule came in with a Ki at rat EP4 receptor [1] of 0.76 nM.

As a reminder, the melting point is the temperature of the solid-liquid transition. For the molecule `Cc1cc(C(=O)NC[C@H]2CC[C@H](C(=O)O)CC2)c2c(ccn2Cc2ccc3ccccc3n2)c1` [Example 96], the melting point is 244 to 245 °C (dec.). Moreover, the “Inhibitory rate (%)” value at rat EP4 receptor [3] (dose 0.01 mg/kg) was 57%. The molecule also gave a Ki on rat EP4 receptor [1] of 1.7 nM.

For `O=C(O)c1ccc(CNC(=O)c2cc(C(F)(F)F)cc3ccn(CCOc4ccc(Cl)cc4)c23)cc1` [Example 215], the melting point was 208 to 210 °C. The “Inhibitory rate (%)” value on rat EP4 receptor [3] (dose 0.01 mg/kg) came out at 71%. At rat EP4 receptor [1], affinity was put at a Ki of 2.6 nM.

As for `Cc1cc(C(=O)NC[C@H]2CC[C@H](C(=O)O)CC2)c2c(ccn2Cc2cc3ccccc3cn2)c1` [Example 224], the melting point was 251 to 252 °C (dec.). Besides, the “Inhibitory rate (%)” value at rat EP4 receptor [3] (dose 0.003 mg/kg) is 71%. Besides, the Ki at rat EP4 receptor [1] amounted to 2.1 nM.

On to `O=C(NC[C@H]1CC[C@H](C(=O)O)CC1)c1cc(C(F)(F)F)cc2ccn(Cc3ccc(Cl)cn3)c12` [Example 229], for which the melting point was 224 to 226 °C (dec.). In addition, the Ki at rat EP4 receptor [1] turned out to be 3.9 nM.

Molecule `O=C(NC[C@H]1CC[C@H](C(=O)O)CC1)c1cc(C(F)(F)F)cc2ccn(Cc3cc4cc(Cl)ccc4o3)c12` [Example 231] had a melting point of 211 to 213 °C. The molecule further yielded a Ki at rat EP4 receptor [1] of 1.4 nM.

Source of the values: patent US8598355B2, “Amide compound” (Astellas Pharma Inc., priority 2008, dated 2013).
